Test [1] addresses T1, Glucagon-like peptide 1 receptor (Homo sapiens, UniProt P43220). Nature of the test: Inhibitory concentration required against human GLP1 receptor expressed in CHO cell membrane homogenates. In kind it is cell-based.
Test [2] addresses T1, Glucagon-like peptide 1 receptor. Nature of the test: Effective concentration against human GLP1 receptor expressed in CHO cells. In kind it is cell-based.

pEC50, pIC50: −log10 of the molar value.

By pIC50 is commonly meant the IC50 on a negative log10 scale, so that one unit is a factor of ten. Low values mean a high IC50, high ones a low IC50. In general, pEC50 refers to the negative decadic logarithm of the EC50, by convention in mol/L. Higher therefore signals a low EC50.

T1 sequence (P43220 whole entry): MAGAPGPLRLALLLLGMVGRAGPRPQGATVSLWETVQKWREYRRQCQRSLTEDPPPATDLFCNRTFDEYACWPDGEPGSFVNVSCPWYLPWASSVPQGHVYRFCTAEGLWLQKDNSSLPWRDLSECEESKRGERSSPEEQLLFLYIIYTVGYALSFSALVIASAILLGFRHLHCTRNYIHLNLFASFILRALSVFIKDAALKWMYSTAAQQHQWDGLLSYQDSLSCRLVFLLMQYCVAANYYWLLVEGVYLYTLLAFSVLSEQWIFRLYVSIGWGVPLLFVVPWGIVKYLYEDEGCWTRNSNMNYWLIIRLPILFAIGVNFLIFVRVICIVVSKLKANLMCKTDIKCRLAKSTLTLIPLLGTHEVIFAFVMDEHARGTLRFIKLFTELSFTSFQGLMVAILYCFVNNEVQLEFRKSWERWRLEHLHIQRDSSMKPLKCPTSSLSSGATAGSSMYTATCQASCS

With `CC[C@H](C)[C@H](NC(=O)[C@H](CCCCNC(=O)COCCOCCNC(=O)CCN1C(=O)C=CC1=O)NC(=O)[C@H](CCC(=O)O)NC(=O)[C@H](CCCCN)NC(=O)[C@H](C)NC(=O)[C@H](C)NC(=O)[C@H](CCC(N)=O)NC(=O)CNC(=O)[C@H](CCC(=O)O)NC(=O)[C@H](CC(C)C)NC(=O)[C@H](Cc1ccc(O)cc1)NC(=O)[C@H](CO)NC(=O)[C@H](CO)NC(=O)[C@@H](NC(=O)[C@H](CC(=O)O)NC(=O)[C@H](CO)NC(=O)[C@@H](NC(=O)[C@H](Cc1ccccc1)NC(=O)[C@@H](NC(=O)CNC(=O)[C@H](CCC(=O)O)NC(=O)[C@H](C)NC(=O)[C@@H](N)Cc1c[nH]cn1)[C@@H](C)O)[C@@H](C)O)C(C)C)C(=O)N[C@@H](C)C(=O)N[C@@H](Cc1c[nH]c2ccccc12)C(=O)N[C@@H](CC(C)C)C(=O)N[C@H](C(=O)N[C@@H](CCCCN)C(=O)NCC(=O)N[C@@H](CCCN=C(N)N)C(N)=O)C(C)C`, in test [1], the pIC50 is < 5.00. Further, the pEC50 in test [2] is < 6.00.

In test [1], `CC[C@H](C)[C@H](NC(=O)[C@H](Cc1ccccc1)NC(=O)[C@H](CCC(=O)O)NC(=O)[C@H](CCCCN)NC(=O)[C@H](C)NC(=O)[C@H](C)NC(=O)[C@H](CCC(N)=O)NC(=O)CNC(=O)[C@H](CCC(=O)O)NC(=O)[C@H](CC(C)C)NC(=O)[C@H](Cc1ccc(O)cc1)NC(=O)[C@H](CCCCNC(=O)COCCOCCNC(=O)CCN1C(=O)C=CC1=O)NC(=O)[C@H](CO)NC(=O)[C@@H](NC(=O)[C@H](CC(=O)O)NC(=O)[C@H](CO)NC(=O)[C@@H](NC(=O)[C@H](Cc1ccccc1)NC(=O)[C@@H](NC(=O)CNC(=O)[C@H](CCC(=O)O)NC(=O)[C@H](C)NC(=O)[C@@H](N)Cc1c[nH]cn1)[C@@H](C)O)[C@@H](C)O)C(C)C)C(=O)N[C@@H](C)C(=O)N[C@@H](Cc1c[nH]c2ccccc12)C(=O)N[C@@H](CC(C)C)C(=O)N[C@H](C(=O)N[C@@H](CCCCN)C(=O)NCC(=O)N[C@@H](CCCN=C(N)N)C(N)=O)C(C)C` gave a pIC50 of 6.15. In test [2], the pEC50 was 7.55.

(Values after ChEMBL document CHEMBL1137923, “Identification of CJC-1131-albumin bioconjugate as a stable and bioactive GLP-1(7-36) analog” (Bioorg Med Chem Lett, 2004).)
